Test results as given in ChEMBL document CHEMBL6178017, “Intercepting the Downstream of the Estrogen Receptor Signaling Pathway: Discovery of a Potent and Efficient SRC-3 PROTAC Degrader for Overcoming Endocrine Resistance Breast Cancer” (J Med Chem, 2025).
Calls of active or inactive are those of the source. No cut-off for these calls is given here.

How the values were obtained:
[1] = target: T1, Protein cereblon/Nuclear receptor coactivator 3 (Homo sapiens, UniProt Q9Y6Q9+Q96SW2); assay: PROTAC activity at CRBN/SRC-3 in human MCF7 cells assessed as induction of SRC-3 degradation at 1 uM incubated for 24 hrs by immunoblot analysis; type: cell-based
T1 sequence (Q96SW2 whole entry partner): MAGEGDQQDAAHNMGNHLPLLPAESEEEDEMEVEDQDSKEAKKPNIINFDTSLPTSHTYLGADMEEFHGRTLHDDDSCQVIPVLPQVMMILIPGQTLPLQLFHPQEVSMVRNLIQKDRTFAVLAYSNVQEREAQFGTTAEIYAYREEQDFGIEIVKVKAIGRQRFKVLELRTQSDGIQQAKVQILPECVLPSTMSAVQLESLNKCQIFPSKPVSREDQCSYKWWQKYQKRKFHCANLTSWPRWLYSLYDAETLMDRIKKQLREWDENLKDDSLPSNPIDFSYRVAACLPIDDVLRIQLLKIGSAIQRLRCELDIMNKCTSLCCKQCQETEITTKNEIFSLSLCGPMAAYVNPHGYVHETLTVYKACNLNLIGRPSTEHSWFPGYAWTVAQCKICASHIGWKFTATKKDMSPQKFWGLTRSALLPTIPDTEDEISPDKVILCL
T1 sequence (Q9Y6Q9 2-1424 limits assumed): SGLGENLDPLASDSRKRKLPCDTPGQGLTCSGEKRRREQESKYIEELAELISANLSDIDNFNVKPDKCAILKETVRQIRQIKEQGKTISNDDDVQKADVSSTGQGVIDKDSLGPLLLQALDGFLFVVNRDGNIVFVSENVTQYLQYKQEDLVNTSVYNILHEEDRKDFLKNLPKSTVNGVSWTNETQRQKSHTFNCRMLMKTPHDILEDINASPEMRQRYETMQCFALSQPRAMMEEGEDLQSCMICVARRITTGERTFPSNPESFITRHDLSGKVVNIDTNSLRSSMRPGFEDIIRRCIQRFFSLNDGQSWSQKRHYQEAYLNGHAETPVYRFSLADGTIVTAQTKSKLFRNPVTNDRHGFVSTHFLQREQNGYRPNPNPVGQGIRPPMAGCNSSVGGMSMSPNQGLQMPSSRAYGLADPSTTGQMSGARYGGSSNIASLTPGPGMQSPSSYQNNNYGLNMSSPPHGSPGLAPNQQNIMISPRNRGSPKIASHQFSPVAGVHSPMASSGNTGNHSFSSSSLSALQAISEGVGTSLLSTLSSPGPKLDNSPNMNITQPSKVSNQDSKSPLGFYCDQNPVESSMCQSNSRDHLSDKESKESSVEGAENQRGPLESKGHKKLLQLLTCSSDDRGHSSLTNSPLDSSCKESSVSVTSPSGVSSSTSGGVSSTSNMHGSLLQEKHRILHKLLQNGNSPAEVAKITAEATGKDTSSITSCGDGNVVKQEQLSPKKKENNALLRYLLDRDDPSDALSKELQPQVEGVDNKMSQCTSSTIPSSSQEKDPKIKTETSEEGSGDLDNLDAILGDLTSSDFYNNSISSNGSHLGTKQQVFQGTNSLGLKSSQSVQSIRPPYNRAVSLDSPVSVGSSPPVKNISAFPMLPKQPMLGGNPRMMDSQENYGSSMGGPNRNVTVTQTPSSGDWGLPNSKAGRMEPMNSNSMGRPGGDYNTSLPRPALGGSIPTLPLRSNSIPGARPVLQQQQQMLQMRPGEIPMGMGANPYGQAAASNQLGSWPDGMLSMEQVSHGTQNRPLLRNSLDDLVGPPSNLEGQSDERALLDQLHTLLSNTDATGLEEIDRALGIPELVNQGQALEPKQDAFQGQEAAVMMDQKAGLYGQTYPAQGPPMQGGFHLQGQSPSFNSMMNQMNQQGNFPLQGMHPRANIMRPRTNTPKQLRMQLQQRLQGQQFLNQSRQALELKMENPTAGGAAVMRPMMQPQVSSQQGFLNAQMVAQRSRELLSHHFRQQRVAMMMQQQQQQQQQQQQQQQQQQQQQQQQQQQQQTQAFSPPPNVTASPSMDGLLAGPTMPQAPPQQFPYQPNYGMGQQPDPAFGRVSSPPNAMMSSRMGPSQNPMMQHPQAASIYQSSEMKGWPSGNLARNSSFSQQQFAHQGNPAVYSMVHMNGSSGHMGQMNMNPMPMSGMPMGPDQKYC

[2] = test system: Mus musculus; assay: In vivo PROTAC activity at CRBN/SRC-3 in Balb/c mouse xenografted with tamoxifen-resistant human LCC2 cells assessed as downregulation of ER-alpha protein level in tumor tissues at 5 uM/Kg, ip administered once every 2 days for 23 days and measured on day 25 by western blot analysis; type: functional, organism-based; details: time 25.0 day
[3] = Intrinsic clearance in human liver microsomes in presence of NADPH by LC-MS/MS analysis; type: ADME, Microsome; details: read-out: CLH
[4] = target: T1, Protein cereblon/Nuclear receptor coactivator 3; assay: PROTAC activity at CRBN/SRC-3 in human MCF7 cells harboring ER-alpha Y537S mutant assessed as downregulation of ER-alpha level at 0.01 to 10 uM measured after 36 hrs by immunoblot analysis; type: cell-based; details: dose 0.01-10 µM
[5] = test system: MCF7; assay: Antiproliferative activity against human MCF7 cells assessed as inhibition of cell growth by CCK8 assay; type: functional, cell-based
[6] = target: T1, Protein cereblon/Nuclear receptor coactivator 3; assay: PROTAC activity at CRBN/SRC-3 in human MCF7 assessed as induction of ER-alpha degradation at 0.1 to 10 uM incubated for 24 hrs by immunoblot analysis; type: cell-based; details: dose 0.1-10 µM
[7] = Toxicity against Balb/c mouse xenografted with tamoxifen-resistant human LCC2 cells assessed as effect on body weight at 3 to 5 uM/Kg, ip administered once every 2 days for 23 days; type: organism-based; details: in vivo, 552 h, dose 3-5 µM/Kg, time 23 day
[8] = test system: Mus musculus; assay: In vivo PROTAC activity at CRBN/SRC-3 in Balb/c mouse xenografted with tamoxifen-resistant human LCC2 cells assessed as induction of SRC-3 degradation in tumor tissues at 3 uM/Kg, ip administered once every 2 days for 23 days and measured on day 25 by western blot analysis; type: functional, organism-based; details: time 25.0 day
[9] = target: T1, Protein cereblon/Nuclear receptor coactivator 3; assay: PROTAC activity at CRBN/SRC-3 in human MCF7 cells assessed as induction of SRC-3 degradation incubated for 24 hrs by immunoblot analysis; type: cell-based; details: dose 0.1-10 µM
[10] = Toxicity against Balb/c mouse xenografted with tamoxifen-resistant human LCC2 cells assessed as effect on heart pathological changes at 3 to 5 uM/Kg, ip administered once every 2 days for 23 days and measured on day 25 by Hematoxylin-Eosin based […] staining analysis; type: organism-based; details: in vivo, 600 h, dose 3-5 µM/Kg, time 25 day
[11] = target: T1, Protein cereblon/Nuclear receptor coactivator 3; assay: PROTAC activity at CRBN/SRC-3 in human MCF7 cells assessed as induction of SRC-3 degradation at 1 uM preincubated with SI-2 for 2 hrs followed by incubation with compound and measured after 36 hrs by immunoblot analysis; type: cell-based
[12] = Toxicity against Balb/c mouse xenografted with tamoxifen-resistant human LCC2 cells assessed as effect on liver pathological changes at 3 to 5 uM/Kg, ip administered once every 2 days for 23 days and measured on day 25 by Hematoxylin-Eosin based […] staining analysis; type: organism-based; details: in vivo, 600 h, dose 3-5 µM/Kg, time 25 day
[13] = Induction of apoptosis in tamoxifen-resistant human LCC2 cells assessed as late apoptotic cells at 1 uM incubated for 48 hrs by AnnexinV-FITC/PI staining based flow cytometry (reference value: 4.83%); type: functional, Tamoxifen-resistant LCC2 cell
[14] = Antiproliferative activity against tamoxifen-resistant human LCC2 cells assessed as inhibition of cell growth by CCK8 assay; type: functional, cell-based
[15] = target: T1, Protein cereblon/Nuclear receptor coactivator 3; assay: PROTAC activity at CRBN/SRC-3 in human MCF7 cells overexpressing EGFR assessed as induction of SRC-3 degradation measured after 36 hrs by immunoblot analysis; type: cell-based; details: dose 0.01-10 µM
[16] = Cmax in Balb/c mouse at 20 mg/kg, po by LC-MS/MS analysis; type: ADME, organism-based; details: in vivo
[17] = Induction of apoptosis in tamoxifen-resistant human LCC2 cells assessed as viable cells at 20 uM incubated for 48 hrs by AnnexinV-FITC/PI staining based flow cytometry (reference value: 88.09%); type: functional; details: Tamoxifen-resistant LCC2 cell, read-out: Activity
[18] = test system: Tamoxifen-resistant LCC2 cell; assay: Antitumor activity against tamoxifen-resistant human LCC2 cells xenografted in Balb/c mouse assessed as reduction in Ki67 expression in tumor tissues at 5 uM/Kg, ip administered once every 2 days for 23 days and measured on day 25 by Hematoxylin-Eosin staining based immunohistochemical staining analysis; type: functional, organism-based; details: time 25.0 day
[19] = target: T1, Protein cereblon/Nuclear receptor coactivator 3; assay: PROTAC activity at CRBN/SRC-3 in tamoxifen-resistant human LCC2 cells assessed as degradation of SRC-3 at 10 uM measured after 36 hrs by diaPASEF-based quantitative proteomics analysis relative to control; details: Tamoxifen-resistant LCC2 cell
[20] = target: T1, Protein cereblon/Nuclear receptor coactivator 3; assay: PROTAC activity at CRBN/SRC-3 in tamoxifen-resistant human LCC2 cells assessed as induction of SRC-3 degradation at 1 uM preincubated with proteasome inhibitor, MG-132 for 2 hrs followed by incubation with compound and measured after 36 hrs by immunoblot analysis; type: cell-based; details: Tamoxifen-resistant LCC2 cell
[21] = Toxicity against Balb/c mouse xenografted with tamoxifen-resistant human LCC2 cells assessed as effect on lung pathological changes at 3 to 5 uM/Kg, ip administered once every 2 days for 23 days and measured on day 25 by Hematoxylin-Eosin based […] staining analysis; type: organism-based; details: in vivo, 600 h, dose 3-5 µM/Kg, time 25 day
[22] = Toxicity against Balb/c mouse xenografted with tamoxifen-resistant human LCC2 cells assessed as effect on spleen pathological changes at 3 to 5 uM/Kg, ip administered once every 2 days for 23 days and measured on day 25 by Hematoxylin-Eosin based […] staining analysis; type: organism-based; details: in vivo, 600 h, dose 3-5 µM/Kg, time 25 day
[23] = Hepatic extraction ratio in human liver microsomes in presence of NADPH by LC-MS/MS analysis; type: ADME, Microsome; details: read-out: ERH
[24] = Induction of apoptosis in tamoxifen-resistant human LCC2 cells assessed as viable cells at 1 uM incubated for 48 hrs by AnnexinV-FITC/PI staining based flow cytometry (reference value: 88.09%); type: functional; details: Tamoxifen-resistant LCC2 cell, read-out: Activity
[25] = target: T1, Protein cereblon/Nuclear receptor coactivator 3; assay: PROTAC activity at CRBN/SRC-3 in tamoxifen-resistant human LCC2 cells assessed as induction of ER-alpha degradation at 5 uM incubated for 24 hrs by immunoblot analysis; type: cell-based; details: Tamoxifen-resistant LCC2 cell
[26] = target: T1, Protein cereblon/Nuclear receptor coactivator 3; assay: PROTAC activity at CRBN/SRC-3 in tamoxifen-resistant human LCC2 cells assessed as induction of SRC-3 degradation at 1 uM incubated for 9 hrs by immunoblot analysis; type: cell-based; details: Tamoxifen-resistant LCC2 cell
[27] = target: Protein cereblon/Zinc finger protein Helios (Homo sapiens) (UniProt Q96SW2+Q9UKS7); assay: PROTAC activity at CRBN/IKZF2 in tamoxifen-resistant human LCC2 cells assessed as degradation of IKZF2 at 10 uM measured after 36 hrs by diaPASEF-based quantitative proteomics analysis; details: Tamoxifen-resistant LCC2 cell
Sequence of Protein cereblon/Zinc finger protein Helios (Homo sapiens) (Q96SW2 whole entry, looked up): as the sequence (Q96SW2 whole entry partner) above
Sequence of Protein cereblon/Zinc finger protein Helios (Homo sapiens) (Q9UKS7 whole entry, looked up): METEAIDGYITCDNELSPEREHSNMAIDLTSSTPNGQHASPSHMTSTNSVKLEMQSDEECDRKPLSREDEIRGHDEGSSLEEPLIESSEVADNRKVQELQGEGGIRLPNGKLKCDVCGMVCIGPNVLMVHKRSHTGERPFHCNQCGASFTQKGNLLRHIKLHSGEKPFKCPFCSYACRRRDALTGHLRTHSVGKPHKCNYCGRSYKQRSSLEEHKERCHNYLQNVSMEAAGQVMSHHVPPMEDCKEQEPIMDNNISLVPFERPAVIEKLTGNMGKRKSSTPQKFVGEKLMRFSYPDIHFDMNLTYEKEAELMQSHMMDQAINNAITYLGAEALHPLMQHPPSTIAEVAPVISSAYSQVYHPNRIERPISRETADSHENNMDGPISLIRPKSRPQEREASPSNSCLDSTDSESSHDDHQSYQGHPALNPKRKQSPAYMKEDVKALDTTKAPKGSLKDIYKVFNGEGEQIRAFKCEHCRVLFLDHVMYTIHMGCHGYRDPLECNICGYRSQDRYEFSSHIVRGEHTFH

[28] = target: T1, Protein cereblon/Nuclear receptor coactivator 3; assay: PROTAC activity at CRBN/SRC-3 in tamoxifen-resistant human LCC2 cells assessed as induction of SRC-3 degradation at 1 uM preincubated with autophagy inhibitor, choloroquine for 2 hrs followed by incubation with compound and measured after 36 hrs by immunoblot analysis; type: cell-based; details: Tamoxifen-resistant LCC2 cell
[29] = test system: Tamoxifen-resistant LCC2 cell; assay: Antitumor activity against tamoxifen-resistant human LCC2 cells xenografted in Balb/c mouse assessed as inhibition of tumor growth at 3 uM/Kg, ip administered once every 2 days for 23 days; type: functional, organism-based; details: time 23.0 day
[30] = Induction of apoptosis in tamoxifen-resistant human LCC2 cells assessed as necrotic cells at 5 uM incubated for 48 hrs by AnnexinV-FITC/PI staining based flow cytometry (reference value: 1.16%); type: functional, Tamoxifen-resistant LCC2 cell
[31] = AUC (0 to infinity) in Balb/c mouse at 20 mg/kg, po by LC-MS/MS analysis; type: ADME, organism-based; details: in vivo

Question: For `C/C(=N\Nc1nc2ccccc2n1C1CN(C2CCN(c3cccc4c3C(=O)N(C3CCC(=O)NC3=O)C4=O)CC2)C1)c1ccccn1` (stereo unspecified), which Activity [1] is on record?
Answer: Active

Question: What about the Activity [2] of the same molecule?
Answer: Active

Question: And the CLint scaled [3]?
Answer: 190 mL/min/kg

Question: What about the Activity [4] of the same molecule?
Answer: Active

Question: What about the IC50 [5] of the same molecule?
Answer: 10 nM

Question: What about the Activity [6] of the same molecule?
Answer: Active

Question: And the Activity [7]?
Answer: Non-toxic

Question: What about the Activity [8] of the same molecule?
Answer: Active

Question: And the Activity [9]?
Answer: Dose-dependent-effect

Question: What about the Activity [10] of the same molecule?
Answer: Non-toxic

Question: What about the Activity [11] of the same molecule?
Answer: Active

Question: And the Activity [12]?
Answer: Non-toxic

Question: What about the Activity [13] of the same molecule?
Answer: 21.9%

Question: What about the IC50 [14] of the same molecule?
Answer: 350 nM

Question: And the Activity [15]?
Answer: Dose-dependent-effect

Question: What about the Cmax [16] of the same molecule?
Answer: 25.4 ng/mL

Question: And the viability at 20 µM [17]?
Answer: 42.7%

Question: What about the Activity [18] of the same molecule?
Answer: Active

Question: And the log2FC [19]?
Answer: 0.25

Question: And the Activity [20]?
Answer: inactive

Question: What about the Activity [21] of the same molecule?
Answer: Non-toxic

Question: And the Activity [22]?
Answer: Non-toxic

Question: And the hepatic extraction ratio [23]?
Answer: 0.902

Question: And the viability at 1 µM [24]?
Answer: 51.4%

Question: And the Activity [25]?
Answer: Active; Higher Efficacy Compared To Fulvestrant At The Same Concentration Observed

Question: What about the Activity [26] of the same molecule?
Answer: Active

Question: What about the Activity [27] of the same molecule?
Answer: inactive

Question: And the Activity [28]?
Answer: Active

Question: What about the Activity [29] of the same molecule?
Answer: Active

Question: And the Activity [30]?
Answer: 10.46%

Question: And the AUC(0-inf) [31]?
Answer: 58.4 ng·h/mL
